Results: PubChem BioAssay (NCI)
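Step 1: Grow cells in 96-well plates. Step 2: Expose to compound for 48 hours at 5 concentrations. Step 3: Interpolate endpoints linearly; if unreached, use highest concentration. Here, GI50 denotes the concentration required for 50% inhibition of growth. TGI denotes the concentration required for complete inhibition of growth.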

Columns and labels:
Assay in all cases: NCI tumour cell line growth inhibition, 48 h
M14 melanoma = system: M14 melanoma
SF-268 CNS = system: SF-268 CNS
HCT-116 colon = system: HCT-116 colon
SR leukemia = system: SR leukemia
OVCAR-3 ovarian = system: OVCAR-3 ovarian
786-0 renal = system: 786-0 renal
NCI/ADR-RES ovarian = system: NCI/ADR-RES ovarian
OVCAR-8 ovarian = system: OVCAR-8 ovarian
SN12C renal = system: SN12C renal
HOP-92 NSCLC = system: HOP-92 NSCLC
HCC-2998 colon = system: HCC-2998 colon
COLO 205 colon = system: COLO 205 colon
RPMI-8226 leukemia = system: RPMI-8226 leukemia
K-562 leukemia = system: K-562 leukemia
BT-549 breast = system: BT-549 breast
DU-145 prostate = system: DU-145 prostate
SK-MEL-5 melanoma = system: SK-MEL-5 melanoma
SNB-19 CNS = system: SNB-19 CNS
MDA-MB-231 breast = system: MDA-MB-231 breast
MOLT-4 leukemia = system: MOLT-4 leukemia
HS 578T breast = system: HS 578T breast
A549 NSCLC = system: A549 NSCLC
MDA-MB-435 = system: MDA-MB-435
SK-OV-3 ovarian = system: SK-OV-3 ovarian
NCI-H226 lung = system: NCI-H226 lung
OVCAR-4 ovarian = system: OVCAR-4 ovarian
SK-MEL-28 melanoma = system: SK-MEL-28 melanoma
U251 CNS = system: U251 CNS
HCT-15 colon = system: HCT-15 colon
LOX IMVI melanoma = system: LOX IMVI melanoma
NCI-H460 lung = system: NCI-H460 lung
UACC-257 melanoma = system: UACC-257 melanoma
HOP-62 NSCLC = system: HOP-62 NSCLC
HL-60(TB) leukemia = system: HL-60(TB) leukemia
T-47D breast = system: T-47D breast
HT29 colon = system: HT29 colon
UACC-62 melanoma = system: UACC-62 melanoma
TK-10 renal = system: TK-10 renal
RXF 393 renal = system: RXF 393 renal
SF-539 CNS = system: SF-539 CNS
CCRF-CEM leukemia = system: CCRF-CEM leukemia
OVCAR-5 ovarian = system: OVCAR-5 ovarian
KM12 colon = system: KM12 colon
SW-620 colon = system: SW-620 colon
SNB-75 CNS = system: SNB-75 CNS
PC-3 prostate = system: PC-3 prostate
A498 renal = system: A498 renal
SK-MEL-2 melanoma = system: SK-MEL-2 melanoma
ACHN renal = system: ACHN renal
CAKI-1 renal = system: CAKI-1 renal
MCF7 breast = system: MCF7 breast

## [C-]#[N+][C@]12C(=O)[C@H](CCC1(C)C)C(C)(C)[C@H]1C(=O)N(C)c3cccc2c31
M14 melanoma
  GI50: 29.9 µM
  TGI: > 100 µM
SF-268 CNS
  GI50: > 100 µM
  TGI: > 100 µM
HCT-116 colon
  GI50: 3.73 µM
  TGI: > 100 µM
SR leukemia
  GI50: 6.52 µM
  TGI: > 100 µM
OVCAR-3 ovarian
  GI50: 4.13 µM
  TGI: > 100 µM
786-0 renal
  GI50: > 100 µM
  TGI: > 100 µM
NCI/ADR-RES ovarian
  GI50: > 100 µM
  TGI: > 100 µM
OVCAR-8 ovarian
  GI50: 13.8 µM
  TGI: > 100 µM
SN12C renal
  GI50: 41.9 µM
  TGI: > 100 µM
HOP-92 NSCLC
  GI50: 3.11 µM
  TGI: > 100 µM
HCC-2998 colon
  GI50: > 100 µM
  TGI: > 100 µM
COLO 205 colon
  GI50: 5.06 µM
  TGI: > 100 µM
RPMI-8226 leukemia
  GI50: 13.1 µM
  TGI: > 100 µM
K-562 leukemia
  GI50: 4.8 µM
  TGI: > 100 µM
BT-549 breast
  GI50: 46.2 µM
  TGI: > 100 µM
DU-145 prostate
  GI50: 61.6 µM
  TGI: > 100 µM
SK-MEL-5 melanoma
  GI50: 9.08 µM
  TGI: > 100 µM
SNB-19 CNS
  GI50: 70 µM
  TGI: > 100 µM
MDA-MB-231 breast
  GI50: > 100 µM
  TGI: > 100 µM
MOLT-4 leukemia
  GI50: 10.3 µM
  TGI: > 100 µM
HS 578T breast
  GI50: 68.5 µM
  TGI: > 100 µM
A549 NSCLC
  GI50: 5.42 µM
  TGI: > 100 µM
MDA-MB-435
  GI50: 24.7 µM
  TGI: > 100 µM
SK-OV-3 ovarian
  GI50: 44.4 µM
  TGI: > 100 µM
NCI-H226 lung
  GI50: > 100 µM
  TGI: > 100 µM
OVCAR-4 ovarian
  GI50: 3.82 µM
  TGI: > 100 µM
SK-MEL-28 melanoma
  GI50: > 100 µM
  TGI: > 100 µM
U251 CNS
  GI50: 7.08 µM
  TGI: > 100 µM
HCT-15 colon
  GI50: 58.5 µM
  TGI: > 100 µM
LOX IMVI melanoma
  GI50: > 100 µM
  TGI: > 100 µM
NCI-H460 lung
  GI50: 5.02 µM
  TGI: > 100 µM
UACC-257 melanoma
  GI50: 4.07 µM
  TGI: > 100 µM
HOP-62 NSCLC
  GI50: 9.6 µM
  TGI: > 100 µM
HL-60(TB) leukemia
  GI50: 4.07 µM
  TGI: > 100 µM
T-47D breast
  GI50: 9.41 µM
  TGI: > 100 µM
HT29 colon
  GI50: 17.6 µM
  TGI: > 100 µM
UACC-62 melanoma
  GI50: 22.8 µM
  TGI: > 100 µM
TK-10 renal
  GI50: > 100 µM
  TGI: > 100 µM
RXF 393 renal
  GI50: > 100 µM
  TGI: > 100 µM
SF-539 CNS
  GI50: 61.6 µM
  TGI: > 100 µM
CCRF-CEM leukemia
  GI50: 5.84 µM
  TGI: > 100 µM
OVCAR-5 ovarian
  GI50: > 100 µM
  TGI: > 100 µM
KM12 colon
  GI50: 9.99 µM
  TGI: > 100 µM
SW-620 colon
  GI50: 18.6 µM
  TGI: > 100 µM
SNB-75 CNS
  GI50: 64.3 µM
  TGI: > 100 µM
PC-3 prostate
  GI50: 3.27 µM
  TGI: > 100 µM
A498 renal
  GI50: 0.81 µM
  TGI: 74.2 µM
SK-MEL-2 melanoma
  GI50: 30.6 µM
  TGI: > 100 µM
ACHN renal
  GI50: 80.7 µM
  TGI: > 100 µM
CAKI-1 renal
  GI50: 51.7 µM
  TGI: > 100 µM
MCF7 breast
  GI50: 4.54 µM
  TGI: > 100 µM
